Where a name gives a salt, the structure may show the parent alone. Read-outs that look alike come from different tables or passages of the source.
Assays:
human CYP2C9 [1] = target: T1, human CYP2C9 (Homo sapiens, UniProt P11712)
human CYP2D6 = human CYP2D6 (Homo sapiens, UniProt P10635)
human CYP1A2 = target: T2, human CYP1A2 (Homo sapiens, UniProt P05177); test: biochemical
T2 sequence (P05177 1-516): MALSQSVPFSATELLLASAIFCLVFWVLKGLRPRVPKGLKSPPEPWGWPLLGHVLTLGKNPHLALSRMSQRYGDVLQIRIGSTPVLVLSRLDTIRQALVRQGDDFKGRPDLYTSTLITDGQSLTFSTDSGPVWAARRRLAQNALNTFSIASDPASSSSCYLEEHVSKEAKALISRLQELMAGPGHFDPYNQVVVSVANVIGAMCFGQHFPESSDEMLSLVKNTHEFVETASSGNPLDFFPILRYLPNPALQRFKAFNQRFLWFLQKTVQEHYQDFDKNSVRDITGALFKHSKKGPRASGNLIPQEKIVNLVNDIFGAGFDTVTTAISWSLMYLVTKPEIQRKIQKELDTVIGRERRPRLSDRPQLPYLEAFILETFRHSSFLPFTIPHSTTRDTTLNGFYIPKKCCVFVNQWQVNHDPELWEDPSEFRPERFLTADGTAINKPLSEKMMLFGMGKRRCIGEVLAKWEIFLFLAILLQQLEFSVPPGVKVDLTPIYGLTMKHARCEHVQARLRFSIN

human CYP2C19 [2] = target: T3, human CYP2C19 (Homo sapiens, UniProt P33261); test: biochemical
CYP3A4 = CYP3A4 (Homo sapiens, UniProt P08684); test: biochemical
human CYP2C19 [3] = target: T3, human CYP2C19
human CYP2C9 [4] = target: T1, human CYP2C9; test: biochemical
[5] = CYP1A2 AC50 (half-maximal activity concentration)
[6] = CYP2C19 AC50 (half-maximal activity concentration)
[7] = CYP3A4 AC50 (half-maximal activity concentration)
[8] = CYP2C9 AC50 (half-maximal activity concentration)

Sequence of human CYP2D6 (P10635 whole entry): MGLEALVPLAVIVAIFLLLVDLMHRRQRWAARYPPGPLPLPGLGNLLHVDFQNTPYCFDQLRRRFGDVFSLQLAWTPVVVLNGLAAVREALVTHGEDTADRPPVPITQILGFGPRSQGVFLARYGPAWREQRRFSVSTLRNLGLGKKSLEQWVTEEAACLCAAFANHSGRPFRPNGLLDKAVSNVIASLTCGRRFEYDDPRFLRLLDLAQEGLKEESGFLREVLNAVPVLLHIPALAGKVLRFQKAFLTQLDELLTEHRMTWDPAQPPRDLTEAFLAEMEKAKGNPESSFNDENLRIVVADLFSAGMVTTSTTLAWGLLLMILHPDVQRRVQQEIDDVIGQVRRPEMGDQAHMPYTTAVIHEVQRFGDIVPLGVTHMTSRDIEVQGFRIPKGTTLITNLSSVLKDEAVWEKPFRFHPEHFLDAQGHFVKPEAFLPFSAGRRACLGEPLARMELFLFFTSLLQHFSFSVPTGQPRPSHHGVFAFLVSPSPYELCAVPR
T1 sequence (P11712 whole entry): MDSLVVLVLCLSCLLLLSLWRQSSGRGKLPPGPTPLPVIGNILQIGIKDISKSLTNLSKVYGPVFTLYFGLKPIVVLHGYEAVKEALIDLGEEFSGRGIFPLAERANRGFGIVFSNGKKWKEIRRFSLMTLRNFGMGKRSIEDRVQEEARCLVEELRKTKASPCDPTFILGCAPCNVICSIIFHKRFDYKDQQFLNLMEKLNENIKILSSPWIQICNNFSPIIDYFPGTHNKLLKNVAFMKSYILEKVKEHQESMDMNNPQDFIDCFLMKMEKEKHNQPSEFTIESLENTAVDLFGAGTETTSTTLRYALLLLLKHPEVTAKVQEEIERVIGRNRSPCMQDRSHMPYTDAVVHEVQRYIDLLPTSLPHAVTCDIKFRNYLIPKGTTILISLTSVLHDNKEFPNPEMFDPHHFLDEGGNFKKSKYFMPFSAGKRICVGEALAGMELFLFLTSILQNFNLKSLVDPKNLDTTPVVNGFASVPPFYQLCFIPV
Sequence of CYP3A4 (P08684 whole entry): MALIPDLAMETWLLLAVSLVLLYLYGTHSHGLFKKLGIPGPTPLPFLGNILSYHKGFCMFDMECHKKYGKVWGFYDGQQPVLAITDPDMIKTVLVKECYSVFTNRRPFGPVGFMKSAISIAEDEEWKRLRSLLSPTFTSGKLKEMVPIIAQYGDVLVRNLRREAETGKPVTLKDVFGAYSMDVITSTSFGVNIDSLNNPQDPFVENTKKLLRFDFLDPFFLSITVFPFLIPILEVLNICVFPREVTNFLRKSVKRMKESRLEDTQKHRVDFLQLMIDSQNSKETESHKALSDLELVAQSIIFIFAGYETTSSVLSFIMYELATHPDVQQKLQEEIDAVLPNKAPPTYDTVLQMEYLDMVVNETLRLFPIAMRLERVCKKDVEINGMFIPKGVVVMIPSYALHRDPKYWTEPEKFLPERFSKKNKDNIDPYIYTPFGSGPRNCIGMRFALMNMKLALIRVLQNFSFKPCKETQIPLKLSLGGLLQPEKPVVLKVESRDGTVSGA
T3 sequence (P33261 whole entry): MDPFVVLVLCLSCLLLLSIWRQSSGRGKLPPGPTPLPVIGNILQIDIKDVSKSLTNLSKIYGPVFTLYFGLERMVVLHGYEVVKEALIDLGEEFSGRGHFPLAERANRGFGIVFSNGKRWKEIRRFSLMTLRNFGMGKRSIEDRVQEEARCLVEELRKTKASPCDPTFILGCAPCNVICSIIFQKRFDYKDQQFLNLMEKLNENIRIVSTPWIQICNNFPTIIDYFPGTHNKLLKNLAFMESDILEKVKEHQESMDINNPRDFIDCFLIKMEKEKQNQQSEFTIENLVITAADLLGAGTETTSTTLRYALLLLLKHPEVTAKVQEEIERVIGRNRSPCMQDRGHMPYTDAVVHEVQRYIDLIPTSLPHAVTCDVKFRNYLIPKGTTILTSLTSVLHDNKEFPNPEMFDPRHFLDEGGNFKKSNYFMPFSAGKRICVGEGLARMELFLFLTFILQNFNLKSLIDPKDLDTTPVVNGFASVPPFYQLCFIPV

| SMILES | CYP2C9 AC50 (half-maximal activity concentration) (human CYP2C9 [1]) | CYP2D6 AC50 (half-maximal activity concentration) (human CYP2D6) | AC50 (human CYP1A2; [5]) [µM] | AC50 (human CYP2C19 [2]; [6]) [µM] | AC50 (CYP3A4; [7]) [µM] | CYP2C19 AC50 (half-maximal activity concentration) (human CYP2C19 [3]) | AC50 (human CYP1A2) [µM] | AC50 (CYP3A4) [µM] | AC50 (human CYP2C19 [2]) [µM] | AC50 (human CYP2C9 [4]; [8]) [µM] | AC50 (human CYP2C9 [4]) [µM] |
| --- | --- | --- | --- | --- | --- | --- | --- | --- | --- | --- | --- |
| O=C(Cc1ccccc1)c1ccccc1 [1,2-Diphenylethanone] | Inconclusive inhibitor | Inconclusive inhibitor | 12.6 | 12.8 | 7.68 | – | – | – | – | – | – |
| Clc1nnc(Cl)c2ccccc12 [1,4-Dichlorophthalazine] | Inactive | Inconclusive inhibitor | – | – | – | Inactive | 9.06 | 5.51 | – | – | – |
| CC(=O)c1ccc2ccccc2c1 [2'-Acetonaphthone] | Inactive | Inconclusive inhibitor | 9.34 | 45 | 34.4 | – | – | – | – | – | – |
| O=[N+]([O-])c1cccc(Cl)c1Cl [2,3-Dichloronitrobenzene] | Inconclusive activator | Inactive | 34.6 | – | 29.1 | Inactive | – | – | – | – | – |
| O=[N+]([O-])c1c(Cl)cc(Cl)cc1Cl [2,4,6-Trichloronitrobenzene] | Inactive | Inactive | 34.7 | – | 6.35 | Inactive | – | – | – | – | – |
| COC(=O)COc1ccc(Cl)cc1Cl [2,4-D-methyl] | Inactive | Inactive | 15.4 | 71.9 | 44 | – | – | – | – | – | – |
| O=[N+]([O-])c1ccccc1CCl [2-Nitrobenzyl chloride] | Inactive | Inconclusive inhibitor | 56.1 | – | 36.1 | Inconclusive inhibitor | – | – | – | – | – |
| O=C(O)c1ccc(Cl)c(Cl)c1 [3,4-Dichlorobenzoic acid] | Inconclusive inhibitor | Inactive | 59.2 | – | 59.7 | Inconclusive inhibitor | – | – | – | – | – |
| COc1ccc(COC(C)=O)cc1 [4-Methoxybenzyl acetate] | Inactive | Inactive | – | – | – | – | 28.9 | 40.8 | 53.7 | – | – |
| O=[N+]([O-])c1cccc2cccnc12 [8-Nitroquinoline] | Inactive | Inactive | 33.9 | – | 38 | Inconclusive inhibitor | – | – | – | – | – |
| COC(=O)c1cccc(C(=O)OC)c1 [Dimethyl isophthalate] | Inactive | Inactive | – | – | – | Inconclusive inhibitor | 9.71 | 52.6 | – | – | – |
| COC(=O)c1ccc(C(=O)OC)cc1 [Dimethyl terephthalate] | Inactive | Inactive | 9.66 | – | 40.1 | Inactive | – | – | – | – | – |
| CCCCc1c(C)nc(NCC)[nH]c1=O [Ethirimol] | Inactive | Inactive | 31.1 | – | 31.8 | Inconclusive inhibitor | – | – | – | – | – |
| CC(=O)[C@H]1CC[C@H]2[C@@H]3CC[C@H]4C[C@](C)(O)CC[C@]4(C)[C@H]3CC[C@]12C [Ganaxolone] | Inactive | Inactive | 25.3 | – | 3.37 | Inactive | – | – | – | – | – |
| CNC(=O)Oc1ccccc1C(C)C [Isoprocarb] | Inconclusive inhibitor | Inactive | 35.6 | 63.5 | 49.3 | – | – | – | – | – | – |
| O=[N+]([O-])c1c(Cl)c(Cl)c(Cl)c(Cl)c1Cl [Pentachloronitrobenzene] | Inconclusive inhibitor | Inactive | 1.94 | – | 4.7 | Inconclusive inhibitor | – | – | – | – | – |
| CC(C)(C)c1ccc(CSc2cnn(C(C)(C)C)c(=O)c2Cl)cc1 [Pyridaben] | – | Inactive | 25.6 | 8.29 | 4.7 | – | – | – | – | 7.2 | – |
| CC(COc1ccc(Oc2ccccc2)cc1)Oc1ccccn1 (stereo not drawn) [Pyriproxyfen] | – | Inactive | 17.3 | 12.4 | 29.7 | – | – | – | – | 12 | – |
| Cc1ccc2ccccc2n1 [Quinaldine] | Inactive | Inactive | 44 | – | 47.7 | Inactive | – | – | – | – | – |
| CCNc1nc(NCC)nc(SC)n1 [Simetryn] | Inconclusive activator | Inactive | 8.11 | – | 46.2 | Inconclusive inhibitor | – | – | – | – | – |
| CCCCCCCCOS(=O)(=O)O [Sodium octyl sulfate] | – | Inactive | – | – | – | – | 68.4 | 62.6 | 52.3 | – | 30.6 |
| O=C(NC(=O)c1c(F)cccc1F)Nc1cc(Cl)c(F)c(Cl)c1F [Teflubenzuron] | – | Inactive | 32.5 | 69.2 | 57.7 | – | – | – | – | 46.5 | – |
| CCNc1nc(NC(C)(C)C)nc(SC)n1 [Terbutryn] | Inconclusive activator | Inactive | 7.74 | 39.6 | 11.5 | – | – | – | – | – | – |
| IC(I)=C(I)I [Tetraiodoethene] | – | Inactive | 13 | 9.09 | 19.5 | – | – | – | – | 3.57 | – |
| O=CC(Br)(Br)Br [Tribromoacetaldehyde] | – | Inconclusive inhibitor | 29.6 | 53.3 | 10.2 | – | – | – | – | 18.4 | – |
| O=P(Oc1ccccc1)(Oc1ccccc1)Oc1ccccc1 [Triphenyl phosphate] | – | Inactive | 10.8 | 6.53 | 6.42 | – | – | – | – | 6.87 | – |
| c1ccc(-c2ccccc2-c2ccccc2)cc1 [o-Terphenyl] | – | Inactive | 2.91 | 15.9 | 24.7 | – | – | – | – | 26.5 | – |
